Experiments:
[1] = incubation of pranlukast with liver microsomes from rats or mice; assay type: in vitro ADME; details: rat or mouse liver microsomes; for metabolite formation from pranlukast: high concentrations of pranlukast (50 uM)
[2] = incubation of pranlukast with liver microsomes from dogs; assay type: in vitro ADME; details: dog liver microsomes
[3] = human radiolabel study of pranlukast (recovery in feces, metabolites in feces and plasma); assay type: in vivo; details: for plasma concentrations of metabolite in humans: human plasma, limited data from the single radiolabelled study
[4] = incubation of pranlukast with human liver S9 from donor H51; assay type: in vitro ADME
Protocol: Samples from the human S9 incubations were received as a 1:1 mixture of incubation media and acetonitrile. In order to reduce the relative organic content to about 25%, the samples were diluted with an equal volume of water prior to HPLC/MS and HPLC/MS/MS analysis. Samples from the microsomal incubations were also received as a 1:1 mixture of incubation media and acetonitrile. The relative organic content was however reduced to about 25% by evaporation following the centrifugation step.
Retention times observed in the ion chromatograms for m/z 498 and 482 (pranlukast) correlate well with those in the radiochromatogram. […] Therefore, in the CID spectra of the two monohydroxylated metabolites and the parent compound, the precursor and fragment ions are all shifted by +2 amu due to the predominance of the [^14 C] label. The observed fragmentation patterns are identical to the standards and confirmed the presence of pranlukast, as well as two monohydroxylated metabolites.

[5] = assays predictive of utility in treating asthma
[6] = incubation with human liver microsomes; assay type: in vitro ADME; details: human liver microsomes and NADPH
Protocol: From an evaluation of a battery of human liver microsomes, it was evident that some human livers have enhanced activity towards benzylic hydroxylation. It appears that benzylic and aryl hydroxylation are performed by different P450 enzymes but which enzyme(s) is currently not known.
Preparation of Formula (I) Using Human Hepatic Microsomes:
The incubations were performed with a final volume of 100 mL in a shaking water bath at a temperature of approximately 37° C. Each incubation contained approximately 400 ug/mL of microsomal protein (H51), 0.5 mL 2 mM pranlukast in a 16% w/v encapsin solution containing 1.5% w/v sodium bicarbonate. The incubation volume was adjusted to 75 mL with 50 mM potassium phosphate buffer (pH 7.4). Following a 5 minute pre-incubation at approximately 37° C., the reaction was initiated by the addition of 25 mL of pre-warmed cofactor solution (approximately 1.7 mg NADP, 7.8 mg glucose 6-phosphate and 6 units of glucose 6-phosphate dehydrogenase per mL of 2% (w/v) sodium hydrogen carbonate). […] The putative benzyl hydroxy metabolite was subsequently isolated and analysed as described below. […]
The incubation was performed with a final volume of […] in a shaking water bath at a temperature of approximately 37° C. […] The putative dihydroxymetabolite formed was subsequently analysed and isolated as described below.

Structure (SMILES)	metabolite formation from pranlukast [1]	metabolite formation from pranlukast [2]	sulfation in humans ([3]; human)	plasma concentrations of metabolite in humans [3]	plasma concentrations of metabolite in humans ([3]; listed as benzylhydroxy)	dependence of metabolite formation on NADPH [4]	metabolite formation from pranlukast [4]	activity in assays predictive of utility in treating asthma and other diseases which can be treated by pranlukast [5]	predominant metabolic pathway [1]	absorption ([3]; human)	route of metabolism in humans ([3]; human, benzylic hydroxylation)	dose excreted ([3]; human, feces, after pranlukast, read-out: administered radiolabel recovered in feces as the named species)	administered radiolabel recovered in feces ([3]; human, total radiolabel after pranlukast)	metabolite generated in vitro from the 4-hydroxyphenyl pranlukast analog [6]	presence of metabolite in human fecal samples ([3]; human feces)
O=C(Nc1cccc2c(=O)cc(-c3nnn[nH]3)oc12)c1ccc(OCCCC(O)c2ccccc2)cc1 (centres unmarked) [Formula (I), 4-oxo-8-[4-(4-hydroxy-4-phenylbutoxy)benzoylamino]-2-tetrazol-5-yl-4H-1-benzopyran]	detectable	only very small amounts	no evidence for sulfation	measurable plasma concentrations in humans	measurable in human plasma	dependent on the presence of NADPH	major metabolites	active	–	–	–	–	–	–	–
O=C(Nc1cccc2c(=O)cc(-c3nnn[nH]3)oc12)c1ccc(OCCCCc2ccccc2)cc1 [pranlukast, reference compound]	–	–	–	–	–	–	–	–	hydrolysis of the amide bond in the center of the molecule is the predominant metabolic pathway	poor absorption	major route of metabolism in humans	~84%	98.4%	–	–
O=C(Nc1cccc2c(=O)cc(-c3nnn[nH]3)oc12)c1ccc(OCCCC(O)c2ccc(O)cc2)cc1 (centres unmarked) [Formula (II), 4-oxo-8-[4-(4-hydroxy-4-(4-hydroxyphenyl)butoxy)benzoylarnino]-2-tetrazol-5-yl-4H-1-benzopyran]	detectable	form the arylhydroxy species	appears to be sulfated in humans	measurable in human plasma	–	–	–	active	–	–	–	–	–	generated in vitro	found in human fecal samples

Source: patent publication US5939447A, “Substituted benzopyrans” (SmithKline Beecham Corporation, priority 1998, dated 1999)
